One data set concerns mammalian cells. The data set can be described thus: Mammalian cell surface labeling of Ac4ManNAl-treated cells. The format is cell-based. The note with it: cells labeled with Ac4ManNAl. As for the experimental part:
Compound 9 was tested as a biological imaging reagent using mammalian cells that had been metabolically labeled with peracetylated N-pentynoylmannosamine (Ac4ManNAl), which is metabolized to N-pentynoyl sialic acid (SiaNAl) and presented on cell-surface glycoconjugates. […] It was hypothesized that replacing the methoxy groups with more water soluble alkoxy substituents would maintain the electronic balance between the pendant aryl and the Si-xanthene moieties while enhancing hydrophilicity. To this end, compound 10 was synthesized in six steps from 2,4-difluoronitrobenzene (FIG. 5, and Scheme 1).
Finally, 2.5 μL 1 mM azido fluorophore in 4:1 PBS/MeOH was added. […] Microscopy was performed using a Zeiss AxioVert 200M inverted microscope using a Plan-Neofluar 40×/0.75 objective. Exposure time was 1000 ms using the FITC, Cy3, or Cy5 filters. Images were acquired and processed using SlideBook 5.0, and are shown as a single z-plane.

A short description of data set [1]: Photophysical properties and fluorescence quantum yields of Si-rhodamines in PBS pH 7.4. The format is physicochemical. As for the experimental part:
The fluorescence quantum yields of the purified amino, azido, and triazolyl Si-rhodamines were measured in pH 7.4 phosphate buffered saline (PBS) using cresyl violet in methanol (Φfl=0.54) as a standard (Table 1). […] The best candidate of the four, 8-azidonaphthyl-substituted Si-rhodamine 1, afforded only a 5-fold increase in fluorescence quantum yield as compared with the 29-fold enhancement observed with the corresponding fluorescein.
Fluorescence quantum yields were measured by creating 2 mM stocks of dyes in MeOH. The dyes were then diluted to 20 μM in PBS, then further diluted in PBS to various final concentrations. The absorbance and emission spectra of five different concentrations of dye were measured while keeping maximum absorbance under 0.2. Solutions of probe were excited at 600 nm, and emission was integrated from 600 to 800 nm. Plotting integrated emission vs. absorbance at 600 nm yielded a line, whose slope corresponds to the fluorescence quantum yield. Absolute quantum yields were determined by comparison with the slope of the line measured for cresyl violet in MeOH (Φfl=0.54). The reported quantum yields are the average of three sets of measurements. Absorbance spectra were recorded on a Varian Cary 50 UV-Visible spectrophotometer. Fluorescence spectra were recorded on a Photon Technology International Quanta Master 4 L-format scanning spectrofluorometer equipped with an LPS-220B 75-W xenon lamp and power supply, A-1010B lamp housing with an integrated igniter, switchable 814 photon counting/analog photomultiplier detection unit, and MD5020 motor driver. Measurements were made in 1 cm×0.4 cm quartz cuvettes with a total sample volume of 1 mL.

A further data set has as its system fixed HEK 293T cells. The data set can be described thus: No-wash labeling of glycoproteins on fixed cells. The format is cell-based. The note with it: 10 μM probe, 100 μM TBTA, 1 mM CuSO4, 2 mM sodium ascorbate. As for the experimental part: (A) Labeling glycoproteins on live cell surfaces. […] (B) Labeling glycoproteins on fixed cells.
Fixed (3% paraformaldehyde) Ac4ManNAl-treated HEK 293T cells were also evaluated as substrates CalFluor labeling. In this case, copper-click reaction with 50 μM CuSO4 and 300 μM BTTAA gave poor labeling, potentially due to sequestration of the copper catalyst by denatured proteins. However, use of higher catalyst concentrations (100 μM TBTA, 1 mM CuSO4, 2 mM sodium ascorbate) gave robust labeling with 10 μM CalFluor dyes (FIG. 34B). […] Similar results were achieved when performing the same experiments on fixed CHO K1 cells.

Data set [2] deals with sialic acids in developing zebrafish. The data set can be described thus: Visualizing sialic acids in developing zebrafish. The format is in vivo. The note with it: 24 or 36 hpf, imaged without washing.
Procedure: The probes were tested for visualization of glycans in vivo. […] To test the utility of CalFluors in this system for such applications, zebrafish embryos at the single-cell stage were injected with SiaNAl. After either 24 or 36 hours post fertilization (hpf), the embryos were bathed in a solution containing a CalFluor probe along with copper catalyst.
Zebrafish were injected with 50 pmol SiaNAl at the one to four-cell stage and allowed to develop over time. (A) Real-time labeling of sialic acids. After 24 hpf, zebrafish were incubated in a solution containing 1 μM CalFluor 580 and copper catalyst. […] (B) Comparing no-wash labeling performance by azide probes. After 36 hpf, the embryos were transferred to a solution containing the fluorophore (1 μM for CalFluor 580 and AlexaFluor 594 alkyl azide, or 5 μM for 3-azido-7-hydroxycoumarin) and copper catalyst and imaged without washing after 20 minutes.
The conditions of data set [3]: in methanol; cited from earlier work.
In data set [4] the test system is wild-type L. monocytogenes. Briefly: D-alanine competition experiment. The note with it: 5 mM cyclooctyne amino acid, 0 or 20 mM D-alanine.
Procedure: The bacteria were incubated with 5 mM cyclooctyne amino acid, in the presence of either 0 or 20 mM D-alanine, and labeled following the general procedure.
Bacteria were grown to an optical density (OD) of 0.4 in their respective media (7H9 for M. smegmatis, LB for C. glutamicum, BHI for L. monocytogenes) at 37° C. (M. smegmatis and L. monocytogenes) or 30° C. (C. glutamicum). Then, 5 mM D-amino acid was added (from a 1 M stock in H2O, 1 eq. NaOH was added to help solubilize compounds 12, 13, and 14) and the cells grown for one doubling time. The bacteria were then added to a 96-well V-bottom plate at 200 μL/well and pelleted by centrifugation at 3500 rpm for 3 min. The supernatant was removed and the cells resuspended in 200 μL PBS and pelleted again. This wash process was repeated twice more. The cells were then incubated with 100 μL of 20 μM azido-PEG3-carboxyrhodamine 110 (Click Chemistry Tools) in PBS (made by diluting a 1 mM stock in 9:1 PBS/DMSO) and placed in a 37° C. shaker for 1 h. Alternatively, for alkDala, labeling was performed by incubation with 100 μL of 20 μM azido-PEG3-carboxyrhodamine 110, 128 μM TBTA, 1 mM CuSO4, and 1.2 mM sodium ascorbate in PBS in a 37° C. shaker for 1 h. The cells were washed three times, then fixed with 4% paraformaldehyde for 10 min at rt. The cells were washed another three times, then studied by flow cytometry and microscopy.
A further data set relates to CHO K1 cells. The data set can be described thus: No-wash cell surface labeling of SiaNAl residues, CHO K1. The class given is cell-based. As for the experimental part: Si-rhodamine 10 was evaluated as a reagent for imaging SiaNAl residues on live cell surfaces. CHO K1 cells were incubated with 50 μM Ac4ManNAl for 3 days, washed, and then incubated with 5 μM 10, 50 μM CuSO4, 300 μM BTTAA, and 1 mM sodium ascorbate. […] Cell-surface glycan labeling was visualized as it occurred in real time (FIG. 14). Background labeling was minimal on control cells treated with N-acetylmannosamine (Ac4ManNAc) (FIG. 13).

A further data set has as its system Escherichia coli. The data set can be described thus: No-wash peptidoglycan labeling of Gram-negative Escherichia coli. The class given is cell-based. As for the experimental part:
E. coli incubated with 5 mM endobcnDala or Dala for 2 h from a starting OD of 0.05 and imaged in the presence of 20 μM of azido Si-rhodamine 11 as described above. Only a fraction of the bacteria incubated with endobcnDala were fluorescently labeled under these conditions. (A), (C) Fluorescence and brightfield images of E. coli incubated with 5 mM endobcnDala. (B), (D) Fluorescence and brightfield images of E. coli incubated with 5 mM Dala. Scale bar=10 μm. […] Scale bar=1 μm.
Finally, the bacteria were imaged using the NIR fluorogenic azide probes. It was confirmed that azido Si-rhodamines 9, 10, and 11 would undergo an enhancement in fluorescence upon reaction with cyclooctynes. These probes were incubated with endo-bicyclononynol in vitro to generate triazole products (FIG. 24A). […] All three bacterial strains were incubated with endobcnDala 14 as before, but after washing away excess amino acid, the bacteria were incubated with 10 or 20 μM 11 for 1 hour and directly imaged without washing away excess probe (FIG. 7B). […] While the biosynthetic machinery can tolerate fluorophore-conjugated D-amino acids, allowing one-step PG imaging versus our two-step metabolic/chemical labeling approach, chemical reporter groups are much smaller than long-wavelength fluorophores and therefore minimize possible biological perturbations. […]

Data set [5] concerns M. smegmatis, C. glutamicum, L. monocytogenes. Briefly: No-wash peptidoglycan labeling with compound 11. The class given is cell-based. The note with it: endobcnDala 14-treated, 10 or 20 μM probe, 1 hour. As for the experimental part:
Finally, the bacteria were imaged using the NIR fluorogenic azide probes. It was confirmed that azido Si-rhodamines 9, 10, and 11 would undergo an enhancement in fluorescence upon reaction with cyclooctynes. These probes were incubated with endo-bicyclononynol in vitro to generate triazole products (FIG. 24A). […] All three bacterial strains were incubated with endobcnDala 14 as before, but after washing away excess amino acid, the bacteria were incubated with 10 or 20 μM 11 for 1 hour and directly imaged without washing away excess probe (FIG. 7B). […] While the biosynthetic machinery can tolerate fluorophore-conjugated D-amino acids, allowing one-step PG imaging versus our two-step metabolic/chemical labeling approach, chemical reporter groups are much smaller than long-wavelength fluorophores and therefore minimize possible biological perturbations. […] It is hypothesized that the presence of an outer membrane (though apparently not a mycobacterial “mycomembrane”, FIG. 8A-D) limits access of compound 11 to PG. By contrast, smaller dyes were able to access both terminal alkynes and cyclooctynes in metabolically labeled E. coli PG (FIG. 27).
The bacteria were incubated with either endobcnDala or Dala and washed as described above. […]

The next data set relates to HEK 293T cells. Briefly: No-wash live cell surface labeling and mitochondrial co-staining, HEK 293T.

As for `COc1cc(OC)c(C2=C3C=CC(=[N+](C)C)C=C3[Si](C)(C)c3cc(N(C)C)ccc32)cc1N=[N+]=[N-]` [Compound 9-N3, 3-Azido-4,6-dimethoxy-Si-rhodamine], the background labeling result in the data set on mammalian cells is given as “significant alkyne-independent background labeling even after repeated washing steps”. In data set [1], the λabs is given as 654 nm and the λem came to 666 nm. The compound also had a Φfl in data set [1] (cresyl violet in methanol as standard) of 0.0042. Further, the “Change in Φfl” value in [1] (increase (↑), triazole relative to the azide) is reported as 48 fold.

For the compound `[N-]=[N+]=Nc1cc2ccc(O)cc2oc1=O`, in the data set on fixed HEK 293T cells, the “labeling of fixed cells” value was “performed comparably to the CalFluors”. Besides, in [2], the no-wash alkyne-dependent labeling result is reported as “obscured alkyne-dependent labeling”.

With cresyl violet, the “Φfl of the standard” value in data set [3] is 0.54.

For `NC(CNC(=O)OC[C@H]1[C@@H]2CCC#CCC[C@@H]21)C(=O)O` (stereo partly shown) [Compound 13], the “effect of excess D-alanine on labeling” value in data set [4] is listed as “excess D-alanine decreases the fluorescence intensity”.

As to `CN(C)c1ccc2c(c1)[Si](C)(C)C1=CC(=[N+](C)C)C=CC1=C2c1cc(N=[N+]=[N-])c(OCCOCCOS(=O)(=O)O)cc1OCCOCCOS(=O)(=O)[O-]` [Compound 11], the cell-surface labeling result is “robust cell-surface labeling” in the data set on CHO K1 cells (Ac4ManNAl-treated CHO K1, no wash, 15 min) and “robust cell-surface labeling” in the data set on HEK 293T cells (Ac4ManNAl-treated HEK 293T, no wash). Besides, the background labeling entry in the data set with CHO K1 cells (CHO K1, control or unwanted labeling) is “no unwanted background or mitochondrial labeling”. For the same compound, the “labeling of peptidoglycan with dye” value in the data set on Escherichia coli (5 mM endobcnDala, 20 μM probe) is reported as “not efficiently labeled”. In data set [5], the “no-wash fluorescence signal on bacteria” value is reported as “Clear fluorescence signal over background”. Moreover, the “background, intracellular or mitochondrial labeling” value in the data set on HEK 293T cells (HEK 293T) is reported as “no unwanted background or mitochondrial labeling”. Also, in the data set with HEK 293T cells (HEK 293T), the cell permeability entry was “not cell permeable”.

Regarding `NC(CNC(=O)OC1C#CCCCCC1)C(=O)O` (stereo not shown) [Compound 12], the “effect of excess D-alanine on labeling” value in [4] was “excess D-alanine decreases the fluorescence intensity”.

With `NC(CNC(=O)OC[C@@H]1[C@@H]2CCC#CCC[C@@H]21)C(=O)O` (stereo partly shown) [Compound 14], in the data set on Escherichia coli, the “metabolic incorporation of D-amino acid” value is “similarly to the Gram-positive bacteria”. Further, in data set [4], the “effect of excess D-alanine on labeling” value is “excess D-alanine decreases the fluorescence intensity”.

These data come from US9410958B2, “Alkyne-activated fluorogenic azide compounds and methods of use thereof” (The Regents of the University of California, priority 2014, dated 2016).
